Measurements from patent US12473250B2, “Molecular design of new antibiotics and antibiotic adjuvants against MCR strains” (priority 2019, dated 2025).
In brackets after ≈: the same amount, converted by molar mass.

Key:
Type in all cases: cell-based
[1] = system: colistin resistant MCR (−) E. Cloacae strain 7023456439; assay: Synergy study: colistin MIC in the presence of compound; conditions: strain 7023456439 E. Cloacae
Protocol: (§1) The MICs of the individual drugs and LC compound in combinations were determined using the broth microdilution technique as recommended by the CLSI whereby the two anti-microbial agents were added in an equal amount. (e.g.: 50 μL of Colistin: 50 μL of LC compounds). Diluted media containing compounds and antibiotics will be serially diluted 2-fold, and LC compounds and antibiotics alone or in combination will be assayed at fixed synergy concentration. In all cases, the lowest concentration at which no visible growth occurred was be recorded to be the MIC value of individual and combined antibacterial agents. The results were obtained after 24 hours of incubation.

[2] = system: colistin resistant MCR (−) E. Coli strains; assay: as above
Protocol: as §1

[3] = system: colistin resistant MCR (−) E. Cloacae strain 7023456439; assay: MIC, broth microdilution, compound alone; conditions: strain 7023456439 E. Cloacae
Protocol: (§2) MIC experiments of the antimicrobial agents were determined by a modified broth microdilution method in accordance with the Clinical and Laboratory Standards Institute (CLSI) guidelines using 96 well culture plates. In brief, serial dilutions of all plates were prepared at different concentrations (μg). The inoculum suspension was prepared by adding isolated colonies from a 18-20 hours on TSA plate into phosphate buffer (0.31 mM, pH 7.2) or in water for injection (BBraun) and adjusting the suspension to a turbidity equivalent to 0.5 McFarland Standard. Each well contained a final bacterial concentration of approximately 5×10^5 colony forming units (CFU)/mL. The plate was covered and incubated at 35° C. for 24 hours. […] For the microdilution plates, turbidity in wells can be measured at OD600 using TECAN infinite M200Pro. MIC was determined as […] concentration that gives a 99 percent inhibition.

[4] = system: colistin resistant MCR (−) E. Coli strains; assay: MIC, broth microdilution, compound alone
Protocol: as §2

[5] = system: colistin resistant MCR (+) E. Coli strains; assay: MIC, broth microdilution, compound alone; conditions: compound alone
Protocol: as §2

[6] = system: colistin resistant MCR (+) E. Coli strains; assay: Synergy study: colistin MIC in the presence of compound
Protocol: as §1

[7] = compound at 5 μg (Table 2a: 5 ug/ml)
[8] = strain 6083672926, MCR(−), compound at 5 μg (Table 2a: 5 ug/ml)
[9] = strain 7023446108, MCR(−), compound at 5 μg (Table 2a: 5 ug/ml)
[10] = strain 7033607097, MCR(−), compound at 5 μg (Table 2a: 5 ug/ml)
[11] = strain 6075066346, MCR(+), compound at 5 μg (Table 2a: 5 ug/ml)
[12] = strain 6083655967, MCR(+), compound at 5 μg (Table 2a: 5 ug/ml)
[13] = strain 7103531927, MCR(+), compound at 5 μg

SMILES	Colistin MIC in the presence of the compound [2, 8]	Colistin MIC in the presence of the compound [2, 9]	Colistin MIC in the presence of the compound [2, 10]	MIC [3]	MIC ([4]; strain 6083672926, MCR (−))	MIC ([4]; strain 7023446108, MCR (−))	MIC ([4]; strain 7033607097, MCR (−))	MIC ([5]; strain 6075066346, MCR (+))	MIC ([5]; strain 6083655967, MCR (+))	MIC ([5]; strain 6103645107, MCR (+))	MIC ([5]; strain 6123520276, MCR (+))	MIC ([5]; strain 7013177695, MCR (+))	MIC ([5]; strain 7023436560, MCR (+))	MIC ([5]; strain 7023444207, MCR (+))	MIC ([5]; strain 7103531927, MCR (+))	Colistin MIC in the presence of the compound [6, 11]	Colistin MIC in the presence of the compound [6, 12]	Colistin MIC in the presence of the compound [6, 13]	also measured
CC(C)=CCc1c(OCCCCN(CCCN(C)C)CCCN(C)C)ccc(C(=O)/C=C/c2ccc(OCCCCN(CCCN(C)C)CCCN(C)C)cc2)c1O [LC097]	0.195 µg/mL	0.195 µg/mL	0.195 µg/mL	>25 µg/mL	25 µg/mL (≈ 31 µM)	12.5 µg/mL (≈ 15.5 µM)	12.5 µg/mL (≈ 15.5 µM)	25 µg/mL (≈ 31 µM)	25 µg/mL (≈ 31 µM)	12.5 µg/mL (≈ 15.5 µM)	25 µg/mL (≈ 31 µM)	12.5 µg/mL (≈ 15.5 µM)	12.5 µg/mL (≈ 15.5 µM)	25 µg/mL (≈ 31 µM)	–	–	–	–	Colistin MIC in the presence of the compound [1, 7]: >12.5 µg/mL
CC(C)=CCc1c(OCCCCN(C)CCCN(C)C)ccc(C(=O)/C=C/c2ccc(OCCCCN(C)CCCN(C)C)cc2)c1O [LC098]	0.195 µg/mL	0.195 µg/mL	0.195 µg/mL	>25 µg/mL	12.5 µg/mL (≈ 18.8 µM)	6.25 µg/mL (≈ 9.4 µM)	6.25 µg/mL (≈ 9.4 µM)	6.25 µg/mL (≈ 9.4 µM)	6.25 µg/mL (≈ 9.4 µM)	6.25 µg/mL (≈ 9.4 µM)	6.25 µg/mL (≈ 9.4 µM)	6.25 µg/mL (≈ 9.4 µM)	6.25 µg/mL (≈ 9.4 µM)	6.25 µg/mL (≈ 9.4 µM)	–	–	–	–	Colistin MIC in the presence of the compound [1, 7]: 25 µg/mL
COC(=O)C(CCCNC(=N)N)NC(=O)COc1ccc(C2COc3c(ccc4c3C=CC(C)(C)O4)C2)c(OCC(=O)NC(CCCNC(=N)N)C(=O)OC)c1 (stereo not drawn) [LC106]	–	–	–	>25 µg/mL	>25 µg/mL	>25 µg/mL	>25 µg/mL	>25 µg/mL	>25 µg/mL	>25 µg/mL	>25 µg/mL	>25 µg/mL	>25 µg/mL	>25 µg/mL	–	–	–	–	Colistin MIC in the presence of the compound ([1]; compound at 10 μg (Table 2a: 10 ug/ml)): >25 µg/mL; Colistin MIC in the presence of the compound ([2]; strain 6083672926, MCR(−), compound at 10 μg (Table 2a: 10 ug/ml)): 12.5 µg/mL; Colistin MIC in the presence of the compound ([2]; strain 7023446108, MCR(−), compound at 10 μg (Table 2a: 10 ug/ml)): 6.25 µg/mL; Colistin MIC in the presence of the compound ([2]; strain 7033607097, MCR(−), compound at 10 μg (Table 2a: 10 ug/ml)): 6.25 µg/mL
CCOC(=O)C(CCCNC(=N)N)NC(=O)COc1ccc(/C=C/C(=O)c2ccc(OCC(=O)NC(CCCNC(=N)N)C(=O)OCC)c(CC=C(C)C)c2O)cc1 (stereo not drawn) [LC137]	≤0.0975 µg/mL	≤0.0975 µg/mL	≤0.0975 µg/mL	–	12.5 µg/mL (≈ 15.5 µM)	12.5 µg/mL (≈ 15.5 µM)	12.5 µg/mL (≈ 15.5 µM)	12.5 µg/mL (≈ 15.5 µM)	12.5 µg/mL (≈ 15.5 µM)	–	–	–	–	–	12.5 µg/mL (≈ 15.5 µM)	–	–	–	Colistin MIC in the presence of the compound ([2]; strain 6083672926, MCR(−), compound at 3 μg): 6.25 µg/mL; Colistin MIC in the presence of the compound ([2]; strain 6083672926, MCR(−), compound at 4 μg): 0.195 µg/mL; Colistin MIC in the presence of the compound ([2]; strain 7023446108, MCR(−), compound at 3 μg): 0.39 µg/mL; Colistin MIC in the presence of the compound ([2]; strain 7023446108, MCR(−), compound at 4 μg): <0.0975 µg/mL; Colistin MIC in the presence of the compound ([2]; strain 7033607097, MCR(−), compound at 3 μg): 0.195 µg/mL; Colistin MIC in the presence of the compound ([2]; strain 7033607097, MCR(−), compound at 4 μg): <0.0975 µg/mL; synergy with colistin ([6]; against mcr-1 bacteria, in words): excellent synergy; Colistin MIC in the presence of the compound ([6]; strain 6083655967, MCR(+), compound at 3 μg): 0.78 µg/mL; Colistin MIC in the presence of the compound ([6]; strain 7103531927, MCR(+), compound at 3 μg): 0.39 µg/mL
CC(C)=CCc1c(OCCNCCN)ccc(C(=O)/C=C/c2ccc(OCCNCCN)cc2)c1O [LC143]	≤0.0975 µg/mL	≤0.0975 µg/mL	≤0.0975 µg/mL	–	12.5 µg/mL (≈ 25.2 µM)	6.25 µg/mL (≈ 12.6 µM)	6.25 µg/mL (≈ 12.6 µM)	6.25 µg/mL (≈ 12.6 µM)	6.25 µg/mL (≈ 12.6 µM)	–	–	–	–	–	12.5 µg/mL (≈ 25.2 µM)	–	–	–	–
CCN(CC)CCOc1ccc(/C=C/C(=O)c2ccc(OCCN(CC)CC)c(CC=C(C)C)c2O)cc1 [LC150]	0.195 µg/mL	0.39 µg/mL	0.195 µg/mL	–	50 µg/mL (≈ 95.7 µM)	50 µg/mL (≈ 95.7 µM)	50 µg/mL (≈ 95.7 µM)	>50 µg/mL	>50 µg/mL	–	–	–	–	–	>50 µg/mL	0.39 µg/mL	0.195 µg/mL	0.39 µg/mL	–
CCN(CC)CCCOc1ccc(/C=C/C(=O)c2ccc(OCCCN(CC)CC)c(CC=C(C)C)c2O)cc1 [LC204]	0.39 µg/mL	0.39 µg/mL	0.39 µg/mL	–	>50 µg/mL	>50 µg/mL	>50 µg/mL	>50 µg/mL	>50 µg/mL	–	–	–	–	–	>50 µg/mL	0.39 µg/mL	0.39 µg/mL	0.39 µg/mL	–
CC(C)=CCc1c(OCCCN2CCNCCNCCNCC2)ccc(C(=O)/C=C/c2ccc(OCCCN3CCNCCNCCNCC3)cc2)c1O [LC206]	0.39 µg/mL	0.39 µg/mL	0.39 µg/mL	–	>50 µg/mL	>50 µg/mL	>50 µg/mL	>50 µg/mL	>50 µg/mL	–	–	–	–	–	>50 µg/mL	0.39 µg/mL	0.39 µg/mL	0.39 µg/mL	–
